From patent publication US20040176349A1, “Antibacterial composition” (priority 2001, published 2004)
Where two headings read alike, the source gives them in different places.

Key:
E. faecalis 24592 = assay: MIC, microbroth dilution (NCCLS), Table 1; type: cell-based; conditions: Enterococcus faecalis, 24592
Description: (§1) The minimum inhibitory concentration (MIC) of the compounds was determined using the microbroth dilution technique in accordance with NCCLS guidelines, employing Mueller-Hinton broth (National Committee for Clinical Laboratory Standards, NCCLS, 1995 “Methods for dilution antimicrobial susceptibility tests for bacteria that grow aerobically”—approved standard M7-A5).
(§2) The compounds were tested in isolation, at different concentrations.

E. faecalis NCTC 5957 = assay: MIC, microbroth dilution (NCCLS), Table 1; type: cell-based; conditions: Enterococcus faecalis, NCTC5957
Description: as §1, §2

E. faecalis Phillips = assay: MIC, microbroth dilution (NCCLS), Table 1; type: cell-based; conditions: Enterococcus faecalis
Description: as §1, §2

E. faecalis SFZ = assay: MIC, microbroth dilution (NCCLS), Table 1; type: cell-based; conditions: Enterococcus faecalis
Description: as §1, §2

E. faecium NCTC 7171 = assay: MIC, microbroth dilution (NCCLS), Table 1; type: cell-based; conditions: Enterococcus faecium, NCTC7171
Description: as §1, §2

E. hirae ATCC 10541 = assay: MIC, microbroth dilution (NCCLS), Table 1; type: cell-based; conditions: Enterococcus hirae, ATCC10541
Description: as §1, §2

VRE 1662 = assay: MIC, microbroth dilution (NCCLS), Table 1; type: cell-based, Enterococcus; conditions: Enterococcus, VRE
Description: as §1, §2

VRE 300 1562 = assay: MIC, microbroth dilution (NCCLS), Table 1; type: cell-based, Enterococcus; conditions: Enterococcus, VRE
Description: as §1, §2

VRE 300 1590 = assay: MIC, microbroth dilution (NCCLS), Table 1; type: cell-based, Enterococcus; conditions: Enterococcus, VRE
Description: as §1, §2

VRE 300 2043 = assay: MIC, microbroth dilution (NCCLS), Table 1; type: cell-based, Enterococcus; conditions: Enterococcus, VRE
Description: as §1, §2

E. faecalis 5659 (vanA) = assay: Checkerboard microdilution MIC with PFOB, Table 2; type: cell-based; conditions: E. faecalis 5659 (vanA)
In short: (§3)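 Checkerboard microdilution pairing PFOB with other antibiotics. Synergy scored by FIC index: combination FIC <0.5 synergy, 0.5-2.0 indifference, >2 antagonism, with synergy requiring at least a 4-fold reduction for each compound.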

E. faecalis ATCC 29212 = assay: Checkerboard microdilution MIC with PFOB, Table 2; type: cell-based
In short: as §3

E.faecalis 78097 (van B) = assay: Checkerboard microdilution MIC with PFOB, Table 2; type: cell-based
In short: as §3

E. faecalis ATCC 10541 = assay: Checkerboard microdilution MIC with PFOB, Table 2; type: cell-based; conditions: for MIC: Enterococcus faecalis, ATCC10541
Source text: The aim of the study was to detect any synergy between PFOB and the other antibiotics. For the purposes of the study, synergy was defined in accordance with the FIC (fractional inhibitory concentration) index, as disclosed by Lorian (1991, In “Antibiotics in Laboratory Medicine” 3rd edition, Eds. Williams & Wilkins; esp. p 434-443).

[1] = system: E. faecalis SFZ (vancomycin-sensitive isolate, VSE); assay: Time-kill experiment (viable count); type: cell-based; conditions: FIG. 2, ceftazidime alone at 128 mg/L, PFOB alone at 64 mg/L
Source text: FIG. 2 is a graph of Log viable count (cfu per ml) against time (in hours) for the VSE isolate in the presence or absence of the drugs. […] The isolates used in the Example are purely illustrative and not especially unusual.

Enterococcus strains = assay: MIC against Enterococcus strains, summary of Example 1; type: cell-based; conditions: for MIC: Enterococcus, vancomycin-susceptible strains and one vancomycin-resistant strain
Description: as §1, §2

Compound: CC(C)(O/N=C(\C(=O)N[C@@H]1C(=O)N2C(C(=O)[O-])=C(C[n+]3ccccc3)CS[C@H]12)c1csc(N)n1)C(=O)O [CAZ, ceftazidime]
- MIC (E. faecalis 24592): > 128 µg/mL
- MIC (E. faecalis NCTC 5957): > 128 µg/mL
- MIC (E. faecalis Phillips): > 128 µg/mL
- MIC (E. faecalis SFZ): > 128 µg/mL
- MIC (E. faecium NCTC 7171): > 128 µg/mL
- MIC (E. hirae ATCC 10541): > 128 µg/mL
- MIC (VRE 1662): > 128 µg/mL
- MIC (VRE 300 1562): > 128 µg/mL
- MIC (VRE 300 1590): > 128 µg/mL
- MIC (VRE 300 2043): > 128 µg/mL
- MIC of partner antibiotic in the presence of PFOB at 0.5 mg/L (E. faecalis 5659 (vanA); PFOB 0.5 mg/L): >64 µg/mL
- MIC of partner antibiotic in the presence of PFOB at 1 mg/L (E. faecalis 5659 (vanA); PFOB 1 mg/L): >64 µg/mL
- MIC of partner antibiotic in the presence of PFOB at 2 mg/L (E. faecalis 5659 (vanA); PFOB 2 mg/L): >64 µg/mL
- MIC of partner antibiotic in the presence of PFOB at 4 mg/L (E. faecalis 5659 (vanA); PFOB 4 mg/L): >64 µg/mL
- MIC of partner antibiotic in the presence of PFOB at 8 mg/L (E. faecalis 5659 (vanA); PFOB 8 mg/L): >64 µg/mL
- MIC of partner antibiotic in the presence of PFOB at 16 mg/L (E. faecalis 5659 (vanA); PFOB 16 mg/L): >64 µg/mL
- MIC of partner antibiotic in the presence of PFOB at 32 mg/L (E. faecalis 5659 (vanA); PFOB 32 mg/L): 0.25 µg/mL
- MIC (E. faecalis 5659 (vanA); Enterococcus faecalis, partner antibiotic alone, read-out: MIC (alone) of Partner): > 64 µg/mL
- Synergy FIC (E. faecalis ATCC 29212; E. faecalis ATCC 29212, FIC index of PFOB + labelled partner, <0.5 = synergy): 0.188
- MIC of partner antibiotic in the presence of PFOB at 0.5 mg/L (E. faecalis ATCC 29212; E. faecalis ATCC 29212, PFOB 0.5 mg/L): >64 µg/mL
- MIC of partner antibiotic in the presence of PFOB at 1 mg/L (E. faecalis ATCC 29212; E. faecalis ATCC 29212, PFOB 1 mg/L): >64 µg/mL
- MIC of partner antibiotic in the presence of PFOB at 2 mg/L (E. faecalis ATCC 29212; E. faecalis ATCC 29212, PFOB 2 mg/L): >64 µg/mL
- MIC of partner antibiotic in the presence of PFOB at 4 mg/L (E. faecalis ATCC 29212; E. faecalis ATCC 29212, PFOB 4 mg/L): 32 µg/mL
- MIC of partner antibiotic in the presence of PFOB at 8 mg/L (E. faecalis ATCC 29212; E. faecalis ATCC 29212, PFOB 8 mg/L): 16 µg/mL
- MIC of partner antibiotic in the presence of PFOB at 16 mg/L (E. faecalis ATCC 29212; E. faecalis ATCC 29212, PFOB 16 mg/L): 8 µg/mL
- MIC of partner antibiotic in the presence of PFOB at 32 mg/L (E. faecalis ATCC 29212; E. faecalis ATCC 29212, PFOB 32 mg/L): 2 µg/mL
- MIC (E. faecalis ATCC 29212; Enterococcus faecalis, ATCC29212, E. faecalis ATCC 29212, partner antibiotic alone, read-out: MIC (alone) of Partner): > 64 µg/mL
- synergy with PFOB (E. faecalis ATCC 29212; checkerboard, E. faecalis ATCC 29212, vancomycin-susceptible, in words): marked synergy
- Synergy FIC (E.faecalis 78097 (van B); E.faecalis 78097 (van B), FIC index of PFOB + labelled partner, <0.5 = synergy): 0.156
- MIC of partner antibiotic in the presence of PFOB at 0.5 mg/L (E.faecalis 78097 (van B); E.faecalis 78097 (van B), PFOB 0.5 mg/L): >64 µg/mL
- MIC of partner antibiotic in the presence of PFOB at 1 mg/L (E.faecalis 78097 (van B); E.faecalis 78097 (van B), PFOB 1 mg/L): >64 µg/mL
- MIC of partner antibiotic in the presence of PFOB at 2 mg/L (E.faecalis 78097 (van B); E.faecalis 78097 (van B), PFOB 2 mg/L): 32 µg/mL
- MIC of partner antibiotic in the presence of PFOB at 4 mg/L (E.faecalis 78097 (van B); E.faecalis 78097 (van B), PFOB 4 mg/L): 16 µg/mL
- MIC of partner antibiotic in the presence of PFOB at 8 mg/L (E.faecalis 78097 (van B); E.faecalis 78097 (van B), PFOB 8 mg/L): 16 µg/mL
- MIC of partner antibiotic in the presence of PFOB at 16 mg/L (E.faecalis 78097 (van B); E.faecalis 78097 (van B), PFOB 16 mg/L): 8 µg/mL
- MIC of partner antibiotic in the presence of PFOB at 32 mg/L (E.faecalis 78097 (van B); E.faecalis 78097 (van B), PFOB 32 mg/L): 4 µg/mL
- MIC of PFOB & Partner: Partner concentration (E.faecalis 78097 (van B); E.faecalis 78097 (van B), optimum synergistic combination with PFOB, second figure (partner)): 16 µg/mL
- MIC (E.faecalis 78097 (van B); Enterococcus faecalis, E.faecalis 78097 (van B), partner antibiotic alone, read-out: MIC (alone) of Partner): > 64 µg/mL
- synergy with PFOB (E.faecalis 78097 (van B); checkerboard, E. faecalis 78097, vanB-mediated vancomycin resistance, in words): Synergy was also observed
- MIC of partner antibiotic in the presence of PFOB at 0.5 mg/L (E. faecalis ATCC 10541; E. faecalis ATCC 10541, PFOB 0.5 mg/L): >64 µg/mL
- MIC of partner antibiotic in the presence of PFOB at 1 mg/L (E. faecalis ATCC 10541; E. faecalis ATCC 10541, PFOB 1 mg/L): >64 µg/mL
- MIC of partner antibiotic in the presence of PFOB at 2 mg/L (E. faecalis ATCC 10541; E. faecalis ATCC 10541, PFOB 2 mg/L): >64 µg/mL
- MIC of partner antibiotic in the presence of PFOB at 4 mg/L (E. faecalis ATCC 10541; E. faecalis ATCC 10541, PFOB 4 mg/L): >64 µg/mL
- MIC of partner antibiotic in the presence of PFOB at 8 mg/L (E. faecalis ATCC 10541; E. faecalis ATCC 10541, PFOB 8 mg/L): 8 µg/mL
- MIC of partner antibiotic in the presence of PFOB at 16 mg/L (E. faecalis ATCC 10541; E. faecalis ATCC 10541, PFOB 16 mg/L): 4 µg/mL
- MIC of partner antibiotic in the presence of PFOB at 32 mg/L (E. faecalis ATCC 10541; E. faecalis ATCC 10541, PFOB 32 mg/L): <0.06 µg/mL
- MIC (E. faecalis ATCC 10541; E. faecalis ATCC 10541, optimum synergistic combination of PFOB with the labelled partner, first figure (PFOB), read-out: MIC of PFOB & Partner: PFOB concentration): 8 µg/mL
- MIC (E. faecalis ATCC 10541; E. faecalis ATCC 10541, optimum synergistic combination with PFOB, second figure (partner), read-out: MIC of PFOB & Partner: Partner concentration): 8 µg/mL
- MIC (E. faecalis ATCC 10541; E. faecalis ATCC 10541, partner antibiotic alone, read-out: MIC (alone) of Partner): > 64 µg/mL
- synergy with PFOB (E. faecalis ATCC 10541; checkerboard, E. faecium ATCC 10541 (as named), vancomycin-susceptible, in words): marked synergy
- effect on growth (viable count, time-kill) [1]: some inhibitory effect on growth
- MIC (Enterococcus strains; read-out: MIC of CAZ used in conjunction with PFOB, PFOB at 4 mg/L): < 0.06 µg/mL
- MIC (Enterococcus strains; read-out: MIC of CAZ used in isolation): > 128 µg/mL
- reduction in the MIC of CAZ by PFOB (Enterococcus strains; PFOB at 4 mg/L versus CAZ in isolation): about 2,000 fold
- activity in isolation against the Enterococcus strains tested (Enterococcus strains; compound alone, all strains of Table 1, in words): no activity
